Tests used:
[1] = 101 kPa, Liquid
[2] = refractive index (Na D-line) (dimensionless); details: 298.15 K; 101.33 kPa; Liquid
[3] = refractive index (Na D-line) (dimensionless); xn = mol fraction of the nth substance listed; details: 298.15 K, 101 kPa, Liquid
[4] = xn = mol fraction of the nth substance listed; details: 101 kPa, Liquid

CCCCCCCC[n+]1ccn(C)c1.F[B-](F)(F)F [1-methyl-3-octylimidazolium tetrafluoroborate]
[1]
Details | mass density [kg/m3]
298.15 K | 1101.08
308.15 K | 1094.13
318.15 K | 1087.24

Details | refractive index
[2] | 1.4319

CCCCCCCC[n+]1ccn(C)c1.F[B-](F)(F)F [1-methyl-3-octylimidazolium tetrafluoroborate] + COCCO
[3]
Details | refractive index
x1 = 0.0106 | 1.4015
x1 = 0.0477 | 1.4057
x1 = 0.1083 | 1.4108
x1 = 0.1495 | 1.4134
x1 = 0.2062 | 1.4163
x1 = 0.2827 | 1.4193
x1 = 0.3204 | 1.4208
x1 = 0.542 | 1.4258
x1 = 0.7354 | 1.4285
x1 = 0.9632 | 1.4312
x1 = 0.9929 | 1.4318
x1 = 1 | 1.4319

mass density [kg/m3], [4]
Details | 298.15 K | 308.15 K | 318.15 K
x1 = 0.0106 | 965.72 | 956.59 | 947.31
x1 = 0.0477 | 983.08 | 974.21 | 965.56
x1 = 0.1083 | 1004.86 | 996.43 | 987.84
x1 = 0.1495 | 1016.31 | 1007.97 | 999.62
x1 = 0.2062 | 1029.2 | 1021.09 | 1012.99
x1 = 0.2827 | 1042.98 | 1035.09 | 1027.25
x1 = 0.3204 | 1048.69 | 1041.05 | 1033.14
x1 = 0.542 | 1073.51 | 1066.16 | 1058.83
x1 = 0.7354 | 1087.07 | 1079.83 | 1072.61
x1 = 0.9632 | 1098.9 | 1092.03 | 1085.14
x1 = 0.9929 | 1098.25 | 1091.42 | 1084.47
x1 = 1 | 1101.08 | 1094.13 | 1087.24

CCCCCCCC[n+]1ccn(C)c1.F[B-](F)(F)F [1-methyl-3-octylimidazolium tetrafluoroborate] + COCCOCCO
Details | refractive index
[3], x1 = 1 | 1.4319

CCCCCCCC[n+]1ccn(C)c1.F[B-](F)(F)F [1-methyl-3-octylimidazolium tetrafluoroborate] + COCCOCCOCCO
Details | refractive index
[3], x1 = 1 | 1.4319

[4], x1 = 1
Details | mass density [kg/m3]
298.15 K | 1101.08
308.15 K | 1094.13
318.15 K | 1087.24

COCCOCCO [2-(2-methoxyethoxy)ethanol]
[1]
Details | mass density [kg/m3]
298.15 K | 1014.87
308.15 K | 1005.99

Details | refractive index
[2] | 1.4242

COCCOCCO [2-(2-methoxyethoxy)ethanol] + CCCCCCCC[n+]1ccn(C)c1.F[B-](F)(F)F
[3]
Details | refractive index
x2 = 0 | 1.4242
x2 = 0.0088 | 1.4227
x2 = 0.0165 | 1.4251
x2 = 0.0745 | 1.4271
x2 = 0.1611 | 1.4288
x2 = 0.2555 | 1.4298
x2 = 0.3459 | 1.4304
x2 = 0.4603 | 1.4308
x2 = 0.6468 | 1.4312
x2 = 0.8198 | 1.4314
x2 = 0.9227 | 1.4317
x2 = 0.9912 | 1.4318

mass density [kg/m3], [4]
Details | 298.15 K | 308.15 K | 318.15 K
x2 = 0 | 1014.87 | 1005.99 | –
x2 = 0.0088 | 1017.27 | 1008.44 | 999.55
x2 = 0.0165 | 1019.28 | 1010.49 | 1001.65
x2 = 0.0745 | 1032.37 | 1023.86 | 1015.33
x2 = 0.1611 | 1046.73 | 1038.56 | 1030.36
x2 = 0.2555 | 1058.05 | 1050.15 | 1042.23
x2 = 0.3459 | 1066.48 | 1058.76 | 1051.05
x2 = 0.4603 | 1075.27 | 1067.73 | 1060.25
x2 = 0.6468 | 1086.77 | 1079.5 | 1072.31
x2 = 0.8198 | 1094.83 | 1087.77 | 1080.74
x2 = 0.9227 | 1098.58 | 1091.61 | 1084.65
x2 = 0.9912 | 1100.8 | 1093.85 | 1086.95

COCCOCCOCCO [2-[2-(2-methoxyethoxy)ethoxy]ethanol]
[1]
Details | mass density [kg/m3]
298.15 K | 1044.91
308.15 K | 1036.11
318.15 K | 1027.28

Details | refractive index
[2] | 1.4362

COCCOCCOCCO [2-[2-(2-methoxyethoxy)ethoxy]ethanol] + CCCCCCCC[n+]1ccn(C)c1.F[B-](F)(F)F
[3]
Details | refractive index
x2 = 0 | 1.4362
x2 = 0.0122 | 1.4364
x2 = 0.0223 | 1.4366
x2 = 0.0994 | 1.4372
x2 = 0.2073 | 1.4373
x2 = 0.3192 | 1.4369
x2 = 0.42 | 1.4361
x2 = 0.5301 | 1.4352
x2 = 0.7153 | 1.4334
x2 = 0.8449 | 1.4325
x2 = 0.9395 | 1.4321
x2 = 0.992 | 1.432

mass density [kg/m3], [4]
Details | 298.15 K | 308.15 K | 318.15 K
x2 = 0 | 1044.91 | 1036.11 | 1027.28
x2 = 0.0122 | 1046.7 | 1037.94 | 1029.17
x2 = 0.0223 | 1048.13 | 1039.41 | 1030.69
x2 = 0.0994 | 1057.7 | 1049.21 | 1040.84
x2 = 0.2073 | 1067.89 | 1059.71 | 1051.67
x2 = 0.3192 | 1075.71 | 1067.81 | 1060
x2 = 0.42 | 1081.2 | 1073.51 | 1065.88
x2 = 0.5301 | 1086.14 | 1078.64 | 1071.18
x2 = 0.7153 | 1093.01 | 1085.74 | 1078.58
x2 = 0.8449 | 1097.08 | 1089.95 | 1082.96
x2 = 0.9395 | 1099.66 | 1092.63 | 1085.72
x2 = 0.992 | 1100.9 | 1093.94 | 1087.05

COCCO [2-methoxyethan-1-ol]
[1]
Details | mass density [kg/m3]
298.15 K | 960.05
308.15 K | 950.81
318.15 K | 941.45

Details | refractive index
[2] | 1.4004

COCCO [2-methoxyethan-1-ol] + CCCCCCCC[n+]1ccn(C)c1.F[B-](F)(F)F
Details | refractive index
[3], x2 = 0 | 1.4004

[4], x2 = 0
Details | mass density [kg/m3]
298.15 K | 960.05
308.15 K | 950.81
318.15 K | 941.45

Reference: the NIST ThermoML archive (doi:10.1016/j.jct.2007.09.011)
